Columns and labels:
cyclooxygenase-2 (COX2) [1] = experiment: Dual luciferase reporter assay in 293T cells; assay type: cell-based
Experimental: The targeting effect of HQi-sRNA-2 obtained from medicinal plants by the inventors on cyclooxygenase-2 (COX2) was studied by a dual luciferase reporter detection system, so as to study its potential to exert lipid-lowering effects.
293T cells were cultured and transfected with the HQi-sRNA-2 to be screened and NC-sRNA, respectively, and then with the dual luciferase reporter plasmid of COX2. The dual luciferase activity was detected after 48 h.

[2] = test system: primary lung cancer Kras^LSL-G12Dp53^fl/fl (KP) mouse model; experiment: Tumor tissue apoptosis, caspase-3 immunohistochemistry of lung sections; assay type: in vivo; details: 10 nmol daily by gavage for one month, vs NC group
Description: The mouse model of primary lung cancer was Kras^LSL-G12Dp53^fl/fl (KP).
Mice were weighed and assigned to the negative control group (NC group) and HQi-sRNA-2 group randomly. The NC group was the negative control, in which a sphingosine(d18:1)-NC-sRNA herbal medicine delivery system was constructed from NC-sRNA. The HQi-sRNA-2 group was the experimental group, in which a sphingosine(d18:1)-HQi-sRNA-2 herbal medicine delivery system was constructed from HQi-sRNA-2.
The herbal medicine delivery system was constructed by heating and mixing 10 nmol of sRNA, 100 ug of sphingosine(d18:1) and 300 ul of sterile enzyme-free water in a water bath at 90° C. for 15 minutes.
Each mouse with a uniform body weight was dosed by gavage. Each mouse was given 10 nmol of HQi-sRNA-2 mimic daily by gavage for one month.
The lungs of mice were collected to prepare pathological sections. The left lung was collected and sliced at the largest surface for every mouse, and subjected to immunohistochemistry of caspase-3. The area of positive cell population in the whole pathological section was counted, the tumor burden was calculated, and statistical analysis was performed.

cyclooxygenase-2 (COX2) [3] = experiment: COX2 mRNA (RT-PCR/QPCR) and protein (western blot) in H460 cells; assay type: cell-based, human; details: final concentration 10 nmol/L
Experimental: Method for cell experiment: H460 cells with a cell density of more than 90% in 10 cm2 dishes were plated in 12-well plates (2 plates) according to the cell growth rate, and transfected after 12 h, and the groups were divided as follows: • blank control group (4 wells): 200 uL of opti-MEM per well • negative control group (NC group) and experimental group (3 wells each): the system of each well was as follows • A. 100 uL of opti-MEM and 2 uL of iMax were mixed well for 5 min • B. 100 uL of opti-MEM and 5 uL of small RNA (final concentration 10 nmol/L) were mixed well • C. solution A and solution B were mixed well and let stand for 15 min, and then was added to each well at a 200 uL system • Note: 100 uL of nuclease-free water was added to 2 nmol of small RNA dry powder for dissolution at a storage concentration of 20 umol/L
Cells were collected with Trizo after 24 h of incubation and RNA was extracted. Cells on another plate were collected with RIPA lysis buffer after 48 h of incubation and protein was extracted.
The relative amount of COX-2 mRNA in the RNA in Method 1 and Method 2 was measured by RT-PCR and QPCR technologies.
The relative amount of COX-2 protein in the protein in Method 1 and Method 2 was measured by western blot technology.

[4] = test system: pancreatic cancer BXPC-3 cells; experiment: Cell migration (Transwell); assay type: cell-based, human; details: 100 nmol/L, jetPRIME, 72 h
Experimental: (§1) 1) ASPC-1 cells and BXPC-3 cells with a cell density of more than 90% in 10 cm^2 dishes were digested and then resuspended with 1 mL of serum-free medium and counted. 100,000 cells (100 uL) were plated in the upper chamber, and complete medium with 10% FBS was added to the lower chamber of each Transwell chamber. Transfection was performed after 12 h, and the groups (3 wells per group) were divided: • blank control group: 10 uL of jetPRIME Buffer • negative control group (NC group) and experimental group: 10 uL of jetPRIME Buffer was mixed well with 0.5 uL of jetPRIME reagent and 0.5 uL of small RNA and let stand for 15 min, and then was added to each well at a 10 uL system (final concentration 100 nmol/L) • Note: 100 uL of nuclease-free water was added to 2 nmol of small RNA dry powder for dissolution at a storage concentration of 20 umol/L
(§2) After 72 h, the medium in upper and lower chambers was discarded. The cells were fixed with paraformaldehyde at room temperature for 15 min, stained with 0.1% crystal violet at room temperature for 15 min, and rinsed with PBS. The cells in the upper chamber were gently wiped off with cotton swabs, and the chamber was dried. A Leica inverted microscope DMi8 was turned on, the 5× objective lens was selected, the parameters were adjusted and the white balance was performed following the manual. Each chamber was photographed, followed by counting and statistic processing.
as §1, with “divided as follows:” for “divided:”

[5] = test system: pancreatic cancer ASPC-1 cells; experiment: Cell migration (Transwell); assay type: cell-based, human; details: 100 nmol/L, jetPRIME, 72 h
Experimental: as §1, §2
as §1, with “divided as follows:” for “divided:”

[6] = test system: pancreatic cancer ASPC-1 cells; experiment: Cell invasion (Matrigel Transwell); assay type: cell-based, human; details: 100 nmol/L, jetPRIME, 72 h
Experimental: as §1, with “1) Matrigel basement membrane matrix was thawed on crushed ice one night before and diluted with serum-free medium to a final concentration of 200-300 ug/mL. 100 uL of the diluted Matrigel was added to each upper chamber, let stand at 37° C. for 30 min, and the supernatant was aspirated. ASPC-1 cells” for “1) ASPC-1 cells”, “digested and resuspended with” for “digested and then resuspended with”, “of each chamber. Transfection” for “of each Transwell chamber. Transfection”, “group) were divided as follows: • blank” for “group) were divided: • blank”
After 72 h, the medium in upper and lower chambers was discarded. The cells were fixed with paraformaldehyde at room temperature for 15 min, stained with 0.1% crystal violet at room temperature for 15 min, and rinsed with PBS. […]

Row | Substance | luciferase activity (cyclooxygenase-2 (COX2) [1]; COX2 dual luciferase reporter plasmid, 48 h, compared with NC-sRNA) | luciferase activity (cyclooxygenase-2 (COX2) [1]; base sequence of the binding site mutated) | tumor tissue apoptosis of mice with primary lung cancer [2] | mRNA level of COX2 (cyclooxygenase-2 (COX2) [3]; 24 h, RT-PCR and QPCR) | protein level of COX2 (cyclooxygenase-2 (COX2) [3]; 48 h, western blot) | cell migration [4] | cell migration [5] | cell invasion [6]
1 | HQi-sRNA-2: small RNA derived from Scutellaria baicalensis, sequence AUGGUUCGAUUCCGGAGAGGG (listed as RNA, chemistry not given here) | significantly reduce | restored | significantly increased | significantly down-regulate | significantly down-regulate |  |  | 
2 | MDM-sRNA-39: small RNA derived from Maytenus hookeri, sequence GGGAUUGUAGUUCAAUUGGUCAGAGCACC (listed as RNA, chemistry not given here) |  |  |  |  |  | inhibits | inhibits | inhibits
3 | MDM-sRNA-163: small RNA derived from Maytenus hookeri, sequence UGACUCUAGUCCGACUUUGUGAAAUGACU (listed as RNA, chemistry not given here) |  |  |  |  |  | inhibits | inhibits | 

— patent US20250302862A1, “SMALL RNA DRUG FOR INHIBITING ACTIVITY OF CANCER CELLS” (Institute of Basic Medical Sciences Chinese Academy of …, priority 2022, published 2025)
